The values below come from patent US8614195B2, “Glycoside derivatives and uses thereof” (Novartis AG, priority 2011, dated 2013).

Molecules are shown by their SMILES.

Experiment [1] deals with human sodium glucose co-transporter 2 (SGLT2) (Homo sapiens (Human), UniProt P31639). The experiment is described as follows: SGLT-2 assay: 14C-AMG uptake in CHO-hSGLT2 or HEK-hSGLT2 cells. The format is cell-based. As to conditions: n = 1-4. Here is the method:
These cell lines transport ^14C-labelled alpha-methyl-glucopyranoside (^14C-AMG, Amersham) into the interior of the cell in sodium-dependent manner.
(§1) The SGLT-2 assay is carried out as follows: CHO-hSGLT2 cells are cultivated in Ham's F12 Medium (BioWhittaker) with 10% foetal calf serum and 250 μg/mL zeocin (Invitrogen), and HEK293-hSGLT2 cells are cultivated in DMEM medium with 10% foetal calf serum and 250 μg/mL zeocin (Invitrogen). The cells are detached from the culture flasks by washing twice with PBS and subsequently treating with trypsin/EDTA. After the addition of cell culture medium the cells are centrifuged, resuspended in culture medium and counted in a Casy cell counter. Then 40,000 cells per well are seeded into a white, 96-well plate coated with poly-D-lysine and incubated overnight at 37° C., 5% CO2. The cells are washed twice with 250 μl of assay buffer (Hanks Balanced Salt Solution, 137 mM NaCl, 5.4 mM KCl, 2.8 mM CaCl2, 1.2 mM MgSO4 and 10 mM HEPES (pH 7.4), 50 μg/mL of gentamycin). 250 μl of assay buffer and 5 μl of test compound are then added to each well and the plate is incubated for a further 15 minutes in the incubator. 5 μl of 10% DMSO are used as the negative control. The reaction is started by adding 5 μl of 14 C— AMG (0.05 μCi) to each well. After 2 hours' incubation at 37° C., 5% CO2, the cells are washed again with 250 μl of PBS […] and then lysed by the addition of 25 μl of 0.1 N NaOH (5 min. at 37° C.). 200 μl of MicroScint20 (Packard) are added to each well and incubation is continued for a further 20 min at 37° C. After this incubation the radioactivity of the ^14C-AMG absorbed is measured in a Topcount (Packard) using a ^14C scintillation program.

Another experiment has as its target human SGLT1 (Homo sapiens (Human), UniProt P13866). As to the kind of experiment: SGLT1 assay: analogous 14C-AMG uptake test with hSGLT1 expressed in CHO-K1 or HEK293 cells. The format is cell-based. As to conditions: n = 1-4. Here is the method:
as §1
To determine the selectivity with respect to human SGLT1 an analogous test is set up in which the cDNA for hSGLTI (Genbank Ace. No. NM000343) instead of hSGLT2 cDNA is expressed in CHO-K1 or HEK293 cells.
The title compounds of the Examples were evaluated in the above described assays and the results of which are collated in Table 1.

[2] abbreviates: title compounds of the Examples (prodrugs).

Sequence of human SGLT1 (P13866 whole entry): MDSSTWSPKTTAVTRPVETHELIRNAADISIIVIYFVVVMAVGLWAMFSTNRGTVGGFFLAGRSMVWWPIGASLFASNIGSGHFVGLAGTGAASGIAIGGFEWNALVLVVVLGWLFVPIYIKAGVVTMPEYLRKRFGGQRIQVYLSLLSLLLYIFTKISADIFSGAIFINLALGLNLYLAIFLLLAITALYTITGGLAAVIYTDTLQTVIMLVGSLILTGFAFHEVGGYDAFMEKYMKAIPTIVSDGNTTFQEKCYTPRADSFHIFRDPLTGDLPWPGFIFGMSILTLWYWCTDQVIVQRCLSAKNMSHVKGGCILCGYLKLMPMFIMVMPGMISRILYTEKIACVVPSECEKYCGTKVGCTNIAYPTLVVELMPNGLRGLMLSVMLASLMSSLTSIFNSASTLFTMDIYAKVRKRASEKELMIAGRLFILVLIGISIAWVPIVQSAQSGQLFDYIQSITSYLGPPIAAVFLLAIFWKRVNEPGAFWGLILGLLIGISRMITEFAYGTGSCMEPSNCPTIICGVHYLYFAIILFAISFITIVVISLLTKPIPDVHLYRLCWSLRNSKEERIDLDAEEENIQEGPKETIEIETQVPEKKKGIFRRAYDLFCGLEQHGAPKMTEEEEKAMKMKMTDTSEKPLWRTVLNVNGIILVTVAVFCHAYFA
Sequence of human sodium glucose co-transporter 2 (SGLT2) (P31639 whole entry): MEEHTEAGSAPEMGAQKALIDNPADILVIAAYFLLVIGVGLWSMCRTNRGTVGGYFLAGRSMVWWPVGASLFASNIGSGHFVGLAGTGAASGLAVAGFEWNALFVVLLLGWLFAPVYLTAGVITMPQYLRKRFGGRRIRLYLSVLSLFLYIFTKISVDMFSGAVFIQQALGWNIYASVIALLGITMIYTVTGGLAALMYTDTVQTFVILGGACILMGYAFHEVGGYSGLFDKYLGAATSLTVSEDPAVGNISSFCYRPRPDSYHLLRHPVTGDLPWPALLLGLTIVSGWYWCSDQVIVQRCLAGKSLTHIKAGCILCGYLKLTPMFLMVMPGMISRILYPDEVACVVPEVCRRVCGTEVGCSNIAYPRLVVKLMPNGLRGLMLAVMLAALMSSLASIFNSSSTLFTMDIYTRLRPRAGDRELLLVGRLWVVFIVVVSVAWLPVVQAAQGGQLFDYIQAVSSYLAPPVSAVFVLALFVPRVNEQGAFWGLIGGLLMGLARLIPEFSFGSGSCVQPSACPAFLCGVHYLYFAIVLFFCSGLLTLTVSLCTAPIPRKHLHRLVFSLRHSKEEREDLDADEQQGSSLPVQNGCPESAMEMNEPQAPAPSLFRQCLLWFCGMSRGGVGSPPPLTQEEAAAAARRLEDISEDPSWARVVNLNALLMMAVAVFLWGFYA

For `CC(C)COC(=O)OC[C@H]1O[C@@H](c2ccc(C3CC3)c(Cc3ccc4c(c3)OCCO4)c2)[C@H](O)[C@@H](O)[C@@H]1O` [Example 2b, Carbonic acid (2R,3S,4R,5R,6S)-6-[4-cyclopropyl-3-(2,3-dihydro-benzo[1,4]dioxin-6-ylmethyl)-phenyl]-3,4,5-trihydroxy-tetrahydro-pyran-2-ylmethyl ester isobutyl ester], the figures for the IC50 (in experiment [1] (setting [2]); on human SGLT1 (setting [2])) were 186 nM and 338 nM, respectively.

On to `CCOP(=O)(OCC)OC[C@H]1O[C@@H](c2ccc(C3CC3)c(Cc3ccc4c(c3)OCCO4)c2)[C@H](O)[C@@H](O)[C@@H]1O` [Example 3a, Phosphoric acid (2R,3S,4R,5R,6S)-6-[4-cyclopropyl-3-(2,3-dihydro-benzo[1,4]dioxin-6-ylmethyl)-phenyl]-3,4,5-trihydroxy-tetrahydro-pyran-2-yl methyl ester diethyl ester], for which the IC50 in experiment [1] (setting [2]) was above 1000 nM; on human SGLT1 (setting [2]), 5650 nM.

Consider `CCOC(=O)OC[C@H]1O[C@@H](c2ccc(C3CC3)c(Cc3ccc4c(c3)OCCO4)c2)[C@H](O)[C@@H](O)[C@@H]1O` [Example 2a, Carbonic acid (2R,3S,4R,5R,6S)-6-[4-cyclopropyl-3-(2,3-dihydro-benzo[1,4]dioxin-6-ylmethyl)-phenyl]-3,4,5-trihydroxy-tetrahydro-pyran-2-ylmethyl ester ethyl ester], for which the concentration for half-maximal inhibition (IC50) in experiment [1] (setting [2]) amounted to 97 nM; on human SGLT1 (setting [2]) it was 308 nM.

With `CCc1ccc([C@@H]2O[C@H](CO)[C@@H](O)[C@H](O)[C@H]2O)cc1Cc1ccc2c(c1)OCCO2` [(2S,3R,4R,5S,6R)-2-[3-(2,3-Dihydro-benzo[1,4]dioxin-6-ylmethyl)-4-ethyl-phenyl]-6-hydroxymethyl-tetrahydro-pyran-3,4,5-triol], the concentration for half-maximal inhibition (IC50) against human SGLT1 is 22 nM.

Regarding `CCc1ccc([C@@H]2O[C@H](COC(=O)O[C@@H](C)c3ccccc3)[C@@H](O)[C@H](O)[C@H]2O)cc1Cc1ccc2c(c1)OCCO2` [Example 2g, Carbonic acid (2R,3S,4R,5R,6S)-6-[3-(2,3-dihydro-benzo[1,4]dioxin-6-ylmethyl)-4-ethyl-phenyl]-3,4,5-trihydroxy-tetrahydro-pyran-2-ylmethyl ester (S)-1-phenyl-ethyl ester], the 50% inhibitory concentration (IC50) was determined as 567 nM in experiment [1] (setting [2]) and 1000 nM at human SGLT1 (setting [2]).

Take `OC[C@H]1O[C@@H](c2ccc(C3CC3)c(Cc3ccc4c(c3)OCCO4)c2)[C@H](O)[C@@H](O)[C@@H]1O` [(2S,3R,4R,5S,6R)-2-[4-Cyclopropyl-3-(2,3-dihydro-benzo[1,4]dioxin-6-ylmethyl)-phenyl]-6-hydroxymethyl-tetrahydro-pyran-3,4,5-triol]: the IC50 was determined as 2.2 nM in experiment [1] (parent compound of the prodrugs) and 9 nM on human SGLT1.

As to `CCc1ccc([C@@H]2O[C@H](COC(=O)[C@H](N)C(C)C)[C@@H](O)[C@H](O)[C@H]2O)cc1Cc1ccc2c(c1)OCCO2` [Example 1, (R)-2-Amino-3-methyl-butyric acid (2R,3S,4R,5R,6S)-6-[3-(2,3-dihydro-benzo[1,4]dioxin-6-ylmethyl)-4-ethyl-phenyl]-3,4,5-trihydroxy-tetrahydro-pyran-2-ylmethyl ester], the IC50 in experiment [1] (setting [2]) came out at 22.5 nM; at human SGLT1 (setting [2]), 409 nM.

Turning to `CCOP(=O)(OCC)OC[C@H]1O[C@@H](c2ccc(CC)c(Cc3ccc4c(c3)OCCO4)c2)[C@H](O)[C@@H](O)[C@@H]1O` [Example 3, phosphoric acid (2R,3S,4R,5R,6S)-6-[3-(2,3-dihydro-benzo[1,4]dioxin-6-ylmethyl)-4-ethyl-phenyl]-3,4,5-trihydroxy-tetrahydro-pyran-2-ylmethyl ester diethyl ester], the values for the IC50 (in experiment [1] (setting [2]); at human SGLT1 (setting [2])) were above 1000 nM and 814 nM, respectively.

As for `CCOC(=O)OC[C@H]1O[C@@H](c2ccc(CC)c(Cc3ccc4c(c3)OCCO4)c2)[C@H](O)[C@@H](O)[C@@H]1O` [Example 2c, Carbonic acid (2R,3S,4R,5R,6S)-6-[3-(2,3-dihydro-benzo[1,4]dioxin-6-ylmethyl)-4-ethyl-phenyl]-3,4,5-trihydroxy-tetrahydro-pyran-2-ylmethyl ester ethyl ester], the concentration for half-maximal inhibition (IC50) in experiment [1] (setting [2]) was determined as 27 nM; at human SGLT1 (setting [2]), 197 nM.

On to `CCc1ccc([C@@H]2O[C@H](COC(=O)OCC3CC4CCC3C4)[C@@H](O)[C@H](O)[C@H]2O)cc1Cc1ccc2c(c1)OCCO2` (stereo partly drawn) [Example 2f, Carbonic acid bicyclo[2.2.1]hept-2-ylmethyl ester (2R,3S,4R,5R,6S)-6-[3-(2,3-dihydro-benzo[1,4]dioxin-6-ylmethyl)-4-ethyl-phenyl]-3,4,5-trihydroxy-tetrahydro-pyran-2-ylmethyl ester], for which the IC50 in experiment [1] (setting [2]) worked out at 143 nM; on human SGLT1 (setting [2]), 3440 nM.

For `COC(=O)OC[C@H]1O[C@@H](c2ccc(C3CC3)c(Cc3ccc4c(c3)OCCO4)c2)[C@H](O)[C@@H](O)[C@@H]1O` [Example 2, carbonic acid (2R,3S,4R,5R,6S)-6-[4-cyclopropyl-3-(2,3-dihydro-benzo[1,4]dioxin-6-ylmethyl)-phenyl]-3,4,5-trihydroxy-tetrahydro-pyran-2-ylmethyl ester methyl ester], the IC50 was 17.5 nM in experiment [1] (setting [2]) and 35 nM on human SGLT1 (setting [2]).

Broadly, the IC50 is the concentration that inhibits the measured activity by half.
